The target of assay [1] is hemolysin alpha from Staphylococcus aureus (Staphylococcus aureus, UniProt P09616). In words: cell-based.
The target of assay [2] is S. aureus Alpha hemolysin (Staphylococcus aureus, UniProt P09616). The experiment in a line: cell-based.
Chain of S. aureus Alpha hemolysin (P09616 27-319 limits assumed): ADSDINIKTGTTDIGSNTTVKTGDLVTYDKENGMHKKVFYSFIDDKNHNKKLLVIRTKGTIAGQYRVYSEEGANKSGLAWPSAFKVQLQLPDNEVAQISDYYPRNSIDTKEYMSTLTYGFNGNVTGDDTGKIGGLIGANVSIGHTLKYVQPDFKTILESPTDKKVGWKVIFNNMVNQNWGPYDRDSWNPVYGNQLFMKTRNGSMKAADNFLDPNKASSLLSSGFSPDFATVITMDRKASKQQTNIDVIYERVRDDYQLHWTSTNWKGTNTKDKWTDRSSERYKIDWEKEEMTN

Chain of hemolysin alpha from Staphylococcus aureus (P09616 27-319 limits assumed): as above

On to `Cc1cc2[nH]c(=O)c(=O)[nH]c2cc1S(=O)(=O)Nc1ccc(SC(F)(F)F)cc1` [Compound 396, 7-methyl-2,3-dioxo-N-[4-(trifluoromethylsulfanyl)phenyl]-1,4-dihydroquinoxaline-6-sulfonamide], for which the EC50 lay in the range of 100 to 1000 nM in assay [1] and 30 to 100 nM in assay [2] (A549-LDH Assay activity).

Take `Cc1cc2[nH]c(=O)c(=O)[nH]c2cc1S(=O)(=O)Nc1ccc(-c2ccc(S(C)(=O)=O)cc2)c(Cl)c1` [Compound 398, N-[3-chloro-4-(4-methylsulfonylphenyl)phenyl]-7-methyl-2,3-dioxo-1,4-dihydroquinoxaline-6-sulfonamide]: the EC50 in assay [1] was in the range of 1000 to 3500 nM; in assay [2] (A549-LDH Assay activity), 1000 to 6000 nM.

`COc1cc2[nH]c(=O)c(=O)[nH]c2cc1S(=O)(=O)Nc1ccc(SC(F)(F)F)cc1` [Compound 399, 7-methoxy-2,3-dioxo-N-[4-(trifluoromethylsulfanyl)phenyl]-1,4-dihydroquinoxaline-6-sulfonamide]: the results for the concentration for a half-maximal effect (EC50) in assay [1] and in assay [2] (A549-LDH Assay activity) were 1000 to 3500 nM and 100 to 1000 nM, respectively.

Regarding `COc1cc2[nH]c(=O)c(=O)[nH]c2cc1S(=O)(=O)Nc1ccc(C(F)(F)F)cc1` [Compound 400, 7-methoxy-2,3-dioxo-N-[4-(trifluoromethyl)phenyl]-1,4-dihydroquinoxaline-6-sulfonamide], the values for the 50% effective concentration (EC50) in assay [1] and in assay [2] (A549-LDH Assay activity) were 1000 to 3500 nM and 100 to 1000 nM, respectively.

For the molecule `Cc1cc2[nH]c(=O)c(=O)[nH]c2cc1S(=O)(=O)Nc1ccc(OC(F)(F)F)cc1` [drawing 469 (R^2 = CH3)], the EC50 in assay [1] is 37 nM; in assay [2] (LDH Assay EC50), 14 nM.

`O=c1[nH]c2ccc(S(=O)(=O)Nc3ccc(OC(F)(F)F)cc3)cc2[nH]c1=O` [drawing 469 (R^2 = H), reference compound]: the EC50 in assay [1] is 290 nM; in assay [2] (LDH Assay EC50), 241 nM.

Take `Cc1cc2[nH]c(=O)c(=O)[nH]c2cc1S(=O)(=O)Nc1ccc(C2CC2)cc1` [drawing 470 (R^2 = CH3)]: the concentration giving a half-maximal response (EC50) came out at 63 nM in assay [1] and 18 nM in assay [2] (LDH Assay EC50).

Take `O=c1[nH]c2ccc(S(=O)(=O)Nc3ccc(C4CC4)cc3)cc2[nH]c1=O` [drawing 470 (R^2 = H), reference compound]: the figures for the EC50 in assay [1] and in assay [2] (LDH Assay EC50) were 423 nM and 80 nM, respectively.

As for `Cc1cc(NS(=O)(=O)c2cc3[nH]c(=O)c(=O)[nH]c3cc2C)ccc1Br` [drawing 471 (R^2 = CH3)], the EC50 was 267 nM in assay [1] and 91 nM in assay [2] (LDH Assay EC50).

As to `Cc1cc(NS(=O)(=O)c2ccc3[nH]c(=O)c(=O)[nH]c3c2)ccc1Br` [drawing 471 (R^2 = H), reference compound], the concentration for a half-maximal effect (EC50) in assay [1] was 1690 nM; in assay [2] (LDH Assay EC50), 346 nM.
